Results from ChEMBL document CHEMBL1697731, “Cheminformatics analysis of assertions mined from literature that describe drug-induced liver injury in different species” (Chem Res Toxicol, 2010).

How the values were obtained:
Hepatotoxicity [1] = assay: Literature-mined compound from Fourches et al multi-species drug-induced liver injury (DILI) dataset, effect in humans; conditions: human
Hepatotoxicity [2] = assay: Literature-mined compound from Fourches et al multi-species drug-induced liver injury (DILI) dataset, effect in rodents; conditions: rodentia
Hepatotoxicity [3] = assay: Literature-mined compound from Fourches et al multi-species drug-induced liver injury (DILI) dataset, effect in non-rodents

| SMILES | Hepatotoxicity (Hepatotoxicity [1]) | Hepatotoxicity (Hepatotoxicity [2]) | Hepatotoxicity (Hepatotoxicity [3]) | Hepatotoxicity (Hepatotoxicity [1]; Liver) | Hepatotoxicity (Hepatotoxicity [2]; Liver) | Hepatotoxicity (Hepatotoxicity [3]; Liver) |
| --- | --- | --- | --- | --- | --- | --- |
| CO[C@@]1(NC(=O)C2SC(=C(C(N)=O)C(=O)O)S2)C(=O)N2C(C(=O)O)=C(CSc3nnnn3C)CS[C@@H]21 (some centres not stated) [CEFOTETAN] | drug-induced liver injury reported | no drug-induced liver injury reported | no drug-induced liver injury reported |  |  |  |
| CC=CC1=C(C(=O)O)N2C(=O)[C@@H](NC(=O)[C@H](N)c3ccc(O)cc3)[C@H]2SC1 [CEFPROZIL] | drug-induced liver injury reported | no drug-induced liver injury reported | no drug-induced liver injury reported |  |  |  |
| CO/N=C(\C(=O)N[C@@H]1C(=O)N2C(C(=O)O)=C(CSc3nc(=O)c(=O)[nH]n3C)CS[C@H]12)c1csc(N)n1 [CEFTRIAXONE] | drug-induced liver injury reported | drug-induced liver injury reported | drug-induced liver injury reported |  |  |  |
| Cc1ccc(-c2cc(C(F)(F)F)nn2-c2ccc(S(N)(=O)=O)cc2)cc1 [CELECOXIB] |  |  |  | drug-induced liver injury reported | drug-induced liver injury reported | no drug-induced liver injury reported |
| O=C(Cc1cccs1)N[C@@H]1C(=O)N2C(C(=O)[O-])=C(C[n+]3ccccc3)CS[C@H]12 [CEPHALORIDINE] | drug-induced liver injury reported | no drug-induced liver injury reported | no drug-induced liver injury reported |  |  |  |
| CC(=O)OCC1=C(C(=O)O)N2C(=O)[C@@H](NC(=O)Cc3cccs3)[C@H]2SC1 [CEPHALOTHIN] | drug-induced liver injury reported | no drug-induced liver injury reported | no drug-induced liver injury reported |  |  |  |
| COCc1c(C(C)C)nc(C(C)C)c(/C=C/[C@@H](O)C[C@@H](O)CC(=O)[O-])c1-c1ccc(F)cc1.[Na+] [CERIVASTATIN SODIUM] | no drug-induced liver injury reported | drug-induced liver injury reported | drug-induced liver injury reported |  |  |  |
| COCc1c(C(C)C)nc(C(C)C)c(/C=C/[C@@H](O)C[C@@H](O)CC(=O)O)c1-c1ccc(F)cc1 [CERIVASTATIN] | drug-induced liver injury reported | drug-induced liver injury reported | drug-induced liver injury reported |  |  |  |
| O=C(O)COCCN1CCN(C(c2ccccc2)c2ccc(Cl)cc2)CC1 (configuration not stated) [CETIRIZINE] |  |  |  | drug-induced liver injury reported | no drug-induced liver injury reported | no drug-induced liver injury reported |
| C[C@H](CCC(=O)O)[C@H]1CC[C@H]2[C@@H]3[C@H](O)C[C@@H]4C[C@H](O)CC[C@]4(C)[C@H]3CC[C@]12C [CHENODIOL] | drug-induced liver injury reported | drug-induced liver injury reported | drug-induced liver injury reported |  |  |  |
| OC(O)C(Cl)(Cl)Cl [CHLORAL HYDRATE] |  |  |  | drug-induced liver injury reported | drug-induced liver injury reported | no drug-induced liver injury reported |
| O=C(O)CCCc1ccc(N(CCCl)CCCl)cc1 [CHLORAMBUCIL] | drug-induced liver injury reported | drug-induced liver injury reported | no drug-induced liver injury reported |  |  |  |
| Cc1ccc(S(=O)(=O)[N-]Cl)cc1.[Na+] [CHLORAMINE-T ANHYDROUS] | no drug-induced liver injury reported | drug-induced liver injury reported | drug-induced liver injury reported |  |  |  |
| O=C(N[C@H](CO)[C@H](O)c1ccc([N+](=O)[O-])cc1)C(Cl)Cl [CHLORAMPHENICOL] | drug-induced liver injury reported | drug-induced liver injury reported | no drug-induced liver injury reported |  |  |  |
